“Also recorded” adds a separate entry of the source.
Experiments:
E. coli ATCC 25922 [1] = assay: Kirby-Bauer disk test (zone of inhibition); assay type: cell-based; details: amount 17.5 nmol per disk, HFBA salts except 1* (sulphate)
Procedure: Antibiotic disks preparation. Paper disks (6 mm diameter, BBL Microbiology Systems) were wetted through with 20, 25, 30 and 35 μL of a solution containing the antibiotic sample at a concentration of 0.5 nmol/μL. The wet disks were dried in a desiccator overnight, and used the next day.
Culture preparation. A colony picked from a freshly made plate of the bacteria strain E. coli ATCC 25922 was used to inoculate 20 mL of Mueller-Hinton broth and the obtained culture was grown overnight at 37° C. and 250 RPM shaking.
Kirby-Bauer test procedure. A new culture was made adding 1 mL of overnight culture in 99 mL of fresh Mueller-Hinton broth. The culture was grown at 37° C. and 250 RPM shaking until it reached an OD600 of 0.132 (0.5 McFarland) and a series of Mueller-Ilinton-Agar plates preheated at 37° C. were inoculated spreading 200 μL of that culture with sterile cotton. The plates were then dried for 30 minutes. Then on each plate 3 or 4 antibiotic paper disks were placed. The plates were incubated overnight at 37° C. and subsequently the diameter of the inhibition growth zone was measured.

E. coli ATCC 25922 [2] = assay: Minimum Inhibitory Concentration (MIC) test; assay type: cell-based; details: for MIC: E. coli ATCC 25922, Mueller-Hinton broth, overnight 37° C., HFBA salts except 1* (sulphate); for antimicrobial activity against E. coli ATCC 25922 (in words): Kirby-Bauer Disk Test and MIC, summary statement
Procedure: All test solutions contained 40 nmol of antibiotic. After drying, the samples were resuspended in 100 μL of Mueller-Hinton broth. Each solution of antibiotic in broth media was pipetted in the first lane of a 96 well plate (volume of well 500 μL). The remaining lanes were filled with 50 μL of E. coli ATCC 25922 culture with an OD600 of 0.264. Series of 2-fold dilution were made removing from the first lane 50 μL of the antibiotic solution and resuspending it with the culture contained in the next well. At the end, all wells were filled with 100 μL of E. coli ATCC 25922 culture in Mueller-Hinton with an OD600 of 0.132 (0.5 McFarland) and the appropriate amount of antibiotic. The 96-well plates were incubated overnight at 37° C. and 350 RPM shaking.

Molecule	Diameter (zones of inhibition as determined by Kirby-Bauer disk method) (E. coli ATCC 25922 [1]) [mm]	MIC (E. coli ATCC 25922 [2]; Escherichia coli, ATCC25922) [µM]	antimicrobial activity against E. coli ATCC 25922 (in words) (E. coli ATCC 25922 [2])	MIC (E. coli ATCC 25922 [2]) [µM]
NC[C@@H]1O[C@H](O[C@H]2[C@@H](O)[C@H](O[C@@H]3[C@@H](O)[C@H](N)C[C@H](N)[C@H]3O[C@H]3O[C@H](CO)[C@@H](O)[C@H](O)[C@H]3N)O[C@@H]2CO)[C@H](N)[C@@H](O)[C@@H]1O [2^, paromomycin, reference compound]	13.2	12.5		
CC(C)C(=O)NCC1O[C@H](OC2C(O)[C@H](OC3C(O)[C@H](N)CC(N)[C@H]3O[C@H]3OC(CN)[C@@H](O)C(O)C3N)O[C@@H]2CO)C(N)C(O)[C@@H]1O (some centres unmarked) [compound 6]	11.5	12.5	still highly active; also recorded: same biological activity as paromomycin 2	
CC(=O)NCC1O[C@H](OC2C(O)[C@H](OC3C(O)[C@H](N)CC(N)[C@H]3O[C@H]3OC(CN)[C@@H](O)C(O)C3N)O[C@@H]2CO)C(N)C(O)[C@@H]1O (some centres unmarked) [5a, N^6(VI)-acetyl neomycin B]	13.9	6.3	still highly active	
NCC1OC(OC2C(CO)OC(OC3C(O)C(N)CC(N)C3OC3OC(CN)C(O)C(O)C3N)C2O)C(N)C(O)C1O.O=C(O)C(F)(F)C(F)(F)C(F)(F)F.O=C(O)C(F)(F)C(F)(F)C(F)(F)F.O=C(O)C(F)(F)C(F)(F)C(F)(F)F.O=C(O)C(F)(F)C(F)(F)C(F)(F)F.O=C(O)C(F)(F)C(F)(F)C(F)(F)F.O=C(O)C(F)(F)C(F)(F)C(F)(F)F (centres unmarked) [1^, neomycin B×6 HFBA, reference compound]	16.1			3.1
neomycin B [compound 1, reference compound]				3.1
